Measurements as given in patent publication US11897862B2 (Gilead Sciences, Inc., priority 2022, dated 2024).

Tests used:
IKZF1 = molecular target: T1, IKZF1 (Homo sapiens, UniProt Q13422+Q96SW2); experiment: HEK293 HiBiT in vitro degradation of IKZF1; assay type: cell-based; conditions: for DC50 / IKZF1 Dmax: HEK293 HiBiT; for DC50: 18-24 hr incubation, normalized to DMSO control, read-out: IKZF1 EC50; for IKZF1 Dmax / Dmax: maximum degradation at the highest concentration tested; for Dmax: HEK293, HEK293 HiBiT
T1 construct: expressed in transfected cells
Experimental: (§1) In vitro degradation of IKZF1, IKZF2, and SALL4 was measured using HiBiT protein tagging and detection technology (Promega).
(§2) HiBit technology was used to develop the quantitative assays to measure the cellular IKZFs level by tagging an 11 amino acid HiBit peptides […] to the protein of interest. Reporter plasmids were generated by fusing a linker sequence ([…]) followed by the HiBit tag at the C-terminus of IKZF1, IKZF2, and SALL4. The fusion fragments were subsequently cloned into pcDNA5 pcDNA™5/FRT/TO plasmids (Thermo Fisher, cat #V652020) downstream of the tetracycline operator. The resulting plasmids were co-transfected with pOG44 Flp-Recombinase Expression Vector (Thermo Fisher, cat #V600520) into Flp-In™ T-REx HEK293 line (Thermo Fisher, cat #R78077) and a stable cell pool was selected by adding 100 µg/ml of Hygromycin (Thermo Fisher, cat #10687010). The reporter cell enabled Tet-On inducible reporter expression from a single copy of the integrated gene.
(§3) On Day 1, Cells were grown to ˜80% confluency in tissue culture medium (DMEM Glutamax (Gibco10569), 10% Tet free FBS (Takara 631106), and PenStrep Glutamin (Gibco 10378)) in tissue culture flasks. Doxycycline was then added to a final concentration of […] to induce reporter expression at 37° C. overnight.
(§4) On Day 2, 125 nL of serially-diluted solution of testing compounds were dispensed into 384-well white solid assay plates via ECHO acoustic liquid handler. Cells were lifted by 0.25% Trypsin (Gibco 25200) then pelleted by centrifugation (Beckman Avanti J-E) at 500×g for 5 min. Cell pellets were resuspended in TC medium at the concentration of 3e5/mL and 25 μL of cell suspension were added into each well of compound-spotted plates. The plates were returned to a 37° C. incubator overnight (18-24 hr).
(§5) On Day 3, assay plates were removed from the tissue culture incubator and 25 μL of Nano-Glo lytic detection system (Promega, cat #N3030) was added to each well. Plates were incubated at r.t. for 3 min with shaking, and luminescence was read using an Envision reader (Perkin Elmer).
(§6) To assess the IKZF1, IKZF2, and SALL4 degrader potential of exemplified compounds of this disclosure and certain Reference Compounds EC50 and Dmax values were determined for the compounds of Examples 1 to 383 and Reference Compounds A-1, B-1, B-2, B-3, B-4, and C-1 in the HiBiT assays. Asterisks (*) indicate examples for which the data shown represents an average of n≥3.

IKZF2 = IKZF2 (Homo sapiens, UniProt Q96SW2+Q9UKS7); experiment: HEK293 HiBiT in vitro degradation of IKZF2; assay type: cell-based; set-up: expressed in transfected cells; conditions: for Dmax: HEK293, HEK293 HiBiT; for Dmax / IKZF2 Dmax: maximum degradation at the highest concentration tested; for DC50 / IKZF2 Dmax: HEK293 HiBiT; for DC50: 18-24 hr incubation, normalized to DMSO control, read-out: IKZF2 EC50
Experimental: as §1, §2, §3, §4, §5, §6

T1 sequence (Q13422 whole entry): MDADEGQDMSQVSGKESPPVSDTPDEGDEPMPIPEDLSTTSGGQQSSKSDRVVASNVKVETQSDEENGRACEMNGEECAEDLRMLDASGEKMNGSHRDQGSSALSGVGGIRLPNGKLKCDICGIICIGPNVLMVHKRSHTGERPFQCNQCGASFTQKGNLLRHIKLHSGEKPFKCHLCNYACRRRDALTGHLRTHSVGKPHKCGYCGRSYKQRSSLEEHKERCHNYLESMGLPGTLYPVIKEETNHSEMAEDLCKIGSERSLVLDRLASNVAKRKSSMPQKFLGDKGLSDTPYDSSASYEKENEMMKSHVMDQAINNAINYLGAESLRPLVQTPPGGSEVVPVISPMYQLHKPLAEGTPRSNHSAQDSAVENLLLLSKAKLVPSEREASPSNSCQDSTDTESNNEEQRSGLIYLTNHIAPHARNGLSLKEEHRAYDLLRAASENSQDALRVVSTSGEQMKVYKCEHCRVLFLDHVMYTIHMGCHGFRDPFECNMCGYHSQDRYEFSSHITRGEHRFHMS
T1 sequence (Q96SW2 whole entry): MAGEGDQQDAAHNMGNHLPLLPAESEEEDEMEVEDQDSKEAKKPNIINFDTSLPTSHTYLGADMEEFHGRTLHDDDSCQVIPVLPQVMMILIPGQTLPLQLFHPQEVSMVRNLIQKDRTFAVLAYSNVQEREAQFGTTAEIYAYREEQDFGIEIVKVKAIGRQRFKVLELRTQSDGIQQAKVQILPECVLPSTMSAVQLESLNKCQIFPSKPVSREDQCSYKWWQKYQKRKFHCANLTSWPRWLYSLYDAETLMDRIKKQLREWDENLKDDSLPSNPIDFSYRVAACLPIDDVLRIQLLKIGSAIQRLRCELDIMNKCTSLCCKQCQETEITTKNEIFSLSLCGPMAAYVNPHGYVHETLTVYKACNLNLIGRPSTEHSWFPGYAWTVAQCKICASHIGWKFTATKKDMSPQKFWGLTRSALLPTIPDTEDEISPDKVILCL
T1 sequence (Q16531 whole entry partner): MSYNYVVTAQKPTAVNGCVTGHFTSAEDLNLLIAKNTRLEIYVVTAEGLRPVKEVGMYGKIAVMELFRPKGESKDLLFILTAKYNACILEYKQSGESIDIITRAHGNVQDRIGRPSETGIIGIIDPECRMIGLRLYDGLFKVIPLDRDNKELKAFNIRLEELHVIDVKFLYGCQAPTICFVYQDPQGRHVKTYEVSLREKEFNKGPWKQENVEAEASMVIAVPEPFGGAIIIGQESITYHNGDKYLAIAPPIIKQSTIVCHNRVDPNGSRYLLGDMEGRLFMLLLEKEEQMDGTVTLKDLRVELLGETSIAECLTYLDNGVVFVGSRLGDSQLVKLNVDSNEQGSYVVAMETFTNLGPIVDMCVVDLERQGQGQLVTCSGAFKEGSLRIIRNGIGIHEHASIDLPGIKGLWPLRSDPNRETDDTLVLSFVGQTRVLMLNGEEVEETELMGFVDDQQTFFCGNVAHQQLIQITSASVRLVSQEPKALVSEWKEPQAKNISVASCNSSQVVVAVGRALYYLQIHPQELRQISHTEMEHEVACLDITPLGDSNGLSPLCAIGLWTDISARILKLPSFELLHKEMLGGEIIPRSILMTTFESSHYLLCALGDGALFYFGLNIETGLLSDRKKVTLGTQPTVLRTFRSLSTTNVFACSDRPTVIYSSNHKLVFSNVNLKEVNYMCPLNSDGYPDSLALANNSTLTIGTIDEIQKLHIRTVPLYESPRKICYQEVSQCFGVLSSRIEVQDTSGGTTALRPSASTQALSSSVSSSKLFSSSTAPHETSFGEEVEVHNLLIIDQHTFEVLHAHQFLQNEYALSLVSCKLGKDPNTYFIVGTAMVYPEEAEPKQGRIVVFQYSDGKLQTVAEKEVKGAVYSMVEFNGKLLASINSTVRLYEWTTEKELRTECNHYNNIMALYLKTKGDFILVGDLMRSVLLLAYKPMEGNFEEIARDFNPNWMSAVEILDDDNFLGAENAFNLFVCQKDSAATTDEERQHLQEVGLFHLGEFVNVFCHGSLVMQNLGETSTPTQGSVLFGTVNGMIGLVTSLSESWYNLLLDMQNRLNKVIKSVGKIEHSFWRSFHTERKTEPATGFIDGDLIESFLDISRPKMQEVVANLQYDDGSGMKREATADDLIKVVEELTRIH
Chain of IKZF2 (Q9UKS7 1-500 isoform Q9UKS7-2): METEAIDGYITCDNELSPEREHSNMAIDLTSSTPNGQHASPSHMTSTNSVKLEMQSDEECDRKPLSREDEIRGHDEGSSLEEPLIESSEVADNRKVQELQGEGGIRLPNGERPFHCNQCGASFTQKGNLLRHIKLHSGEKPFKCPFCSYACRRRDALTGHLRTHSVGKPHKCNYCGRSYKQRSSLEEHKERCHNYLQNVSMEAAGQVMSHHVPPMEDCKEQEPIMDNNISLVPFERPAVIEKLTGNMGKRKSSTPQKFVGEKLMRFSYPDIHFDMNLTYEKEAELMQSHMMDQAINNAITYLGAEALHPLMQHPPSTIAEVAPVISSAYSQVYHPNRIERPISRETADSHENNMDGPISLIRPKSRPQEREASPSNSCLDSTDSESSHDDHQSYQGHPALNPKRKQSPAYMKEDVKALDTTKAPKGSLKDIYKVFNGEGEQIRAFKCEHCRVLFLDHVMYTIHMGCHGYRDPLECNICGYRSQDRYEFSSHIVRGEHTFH
Chain of IKZF2 (Q96SW2 whole entry): as the sequence (Q96SW2 whole entry) above
Chain of IKZF2 (Q16531 whole entry partner): as the sequence (Q16531 whole entry partner) above

DC50 (IKZF1) | Dmax (IKZF2) | DC50 (IKZF2) | IKZF1 Dmax (IKZF1) | IKZF2 Dmax (IKZF2) | Dmax (IKZF1) | SMILES
39 nM | – | 2 nM | 46% | 97% | – | O=C1CCC(N2Cc3c(ccc(C[C@H]4CCCC[C@@H]4NC4CCOC4)c3F)C2=O)C(=O)N1 (stereo partly shown) [Example 189]
> 1000 nM | 97% | 16 nM | – | – | – | O=C1CCC(N2Cc3cc(C[C@H]4CCCC[C@@H]4NC4C[C@H]5COC[C@H]5C4)ccc3C2=O)C(=O)N1 (stereo partly shown) [Example 198]
68 nM | – | 11 nM | 25% | 96% | – | CC1(C)CCC(N[C@H]2CCCO[C@@H]2Cc2ccc3c(c2F)CN(C2CCC(=O)NC2=O)C3=O)C1 (single isomer, unassigned) [Example 259]
48 nM | 99% | 4 nM | – | – | 65% | O=C1CCC(N2Cc3cc(C[C@H]4CCCC[C@@H]4NC4CCc5c(C(F)(F)F)n[nH]c5C4)ccc3C2=O)C(=O)N1 (stereo partly shown) [Example 375]
56 nM | – | 3 nM | 30% | 97% | – | O=C1CCC(N2Cc3cc(C[C@H]4CCCC[C@@H]4NC4CC5CCC(C4)O5)ccc3C2=O)C(=O)N1 (stereo partly shown) [Example 184]
> 1000 nM | – | 8 nM | – | 95% | – | CC(N[C@H]1CCCC[C@@H]1Cc1ccc2c(c1)CN(C1CCC(=O)NC1=O)C2=O)C1CCCC1 (stereo partly shown) [Example 202]
45 nM | 98% | 1 nM | – | – | 42% | [2H]C1(N[C@H]2CCCC[C@@H]2Cc2ccc3c(c2F)CN(C2CCC(=O)NC2=O)C3=O)CCCC1 (stereo partly shown) [Example 212]
261 nM | 95% | 7 nM | – | – | 40% | O=C1CCC(N2Cc3c(ccc(C[C@H]4OCCC[C@@H]4NC4CCC(OC(F)F)CC4)c3F)C2=O)C(=O)N1 (single isomer, unassigned) [Example 326]
653 nM | 70% | 90 nM | – | – | 30% | O=C1CCC(N2Cc3cc(C[C@H]4C=C(F)CC[C@@H]4NC4CCCCC4)ccc3C2=O)C(=O)N1 (stereo partly drawn) [Example 314, 3-(5-(((1S,6S)-6-(cyclohexylamino)-3-fluorocyclohex-2-en-1-yl)methyl)-1-oxoisoindolin-2-yl)piperidine-2,6-dione]
108 nM | 65% | 207 nM | – | – | 29% | C=C1CC[C@H](N)[C@@H](Cc2ccc3c(c2)CN(C2CCC(=O)NC2=O)C3=O)C1 (stereo partly drawn) [Example 381, 3-(5-(((1R,2S)-2-amino-5-methylenecyclohexyl)methyl)-1-oxoisoindolin-2-yl)piperidine-2,6-dione]
102 nM | – | 12 nM | – | 97% | 35% | CC1(C)OCCC1N[C@H]1CCCC[C@@H]1Cc1ccc2c(c1)CN(C1CCC(=O)NC1=O)C2=O (single isomer, unassigned) [Example 274]
> 1000 nM | 86% | 67 nM | – | – | – | O=C1CCC(N2Cc3cc(C[C@H]4CCCC[C@@H]4NCC45CC(c6ccccc6)(C4)C5(F)F)ccc3C2=O)C(=O)N1 (stereo partly shown) [Example 174]
78 nM | 97% | 4 nM | – | – | 42% | O=C1CCC(N2Cc3cc(C[C@H]4CCCC[C@@H]4NC4Cc5ccccc5C4)ccc3C2=O)C(=O)N1 (stereo partly shown) [Example 177]
63 nM | 97% | 2 nM | – | – | 30% | O=C1CCC(N2Cc3cc(C[C@H]4CCCC[C@@H]4NC4CC5CCC(C5)C4)ccc3C2=O)C(=O)N1 (stereo partly shown) [Example 191]
45 nM | 98% | 2 nM | – | – | 44% | O=C1CCC(N2Cc3cc(C[C@H]4CCCC[C@@H]4NC4CCC5(CC4)CC5(F)F)ccc3C2=O)C(=O)N1 (single isomer, unassigned) [Example 271]
62 nM | 97% | 2 nM | – | – | 39% | CC(C)N[C@H]1CC(F)(F)CC[C@@H]1Cc1ccc2c(c1)CN(C1CCC(=O)NC1=O)C2=O (stereo partly shown) [Example 348]
> 1000 nM | 87% | 21 nM | – | – | – | O=C1CCC(N2Cc3cc(C[C@H]4C[C@@H](F)CC[C@@H]4NC4CCC(F)(F)CC4)ccc3C2=O)C(=O)N1 (stereo partly shown) [Example 341]

Continued, compound first:

SMILES | DC50 (IKZF1) | Dmax (IKZF2) | DC50 (IKZF2) | IKZF1 Dmax (IKZF1) | IKZF2 Dmax (IKZF2) | Dmax (IKZF1)
CC(c1ccc2c(c1)CN(C1CCC(=O)NC1=O)C2=O)[C@H]1CCCC[C@@H]1NC1CCC(F)(F)CC1 (stereo partly shown) [Example 147] | > 1000 nM | 75% | 37 nM | – | – | –
O=C1CCC(N2Cc3cc(C[C@H]4CCC[C@H](O)[C@@H]4NC4CCC(F)(F)CC4)ccc3C2=O)C(=O)N1 (stereo partly shown) [Example 163] | 328 nM | 95% | 14 nM | – | – | 45%
COc1ccc(CN[C@H]2CCCC[C@@H]2Cc2ccc3c(c2)CN(C2CCC(=O)NC2=O)C3=O)cc1 (stereo partly drawn) [Example 14, 3-(5-(((1R,2S)-2-((4-methoxybenzyl)amino)cyclohexyl)methyl)-1-oxoisoindolin-2-yl)piperidine-2,6-dione] | > 1000 nM | 88% | 27 nM | – | – | –
O=C1CCC(N2Cc3cc(C[C@H]4CCCC[C@@H]4NC4CC5(COC5)C4)ccc3C2=O)C(=O)N1 (stereo partly drawn) [Example 80, 3-(5-(((1R,2S)-2-((2-oxaspiro[3.3]heptan-6-yl)amino)cyclohexyl)methyl)-1-oxoisoindolin-2-yl)piperidine-2,6-dione] | 299 nM | 95% | 33 nM | – | – | 32%
O=C1CCC(N2Cc3c(ccc(C[C@H]4OCCC[C@@H]4NCC4CCC4)c3F)C2=O)C(=O)N1 (stereo partly shown) [Example 152] | > 500 nM | 78% | 26 nM | – | – | –
O=C1CCC(N2Cc3cc(C[C@H]4OCCC[C@@H]4NC4CCC(F)(F)CC4)ccc3C2=O)C(=O)N1 (stereo partly drawn) [Example 92, 3-(5-(((2R,3S)-3-((4,4-difluorocyclohexyl)amino)tetrahydro-2H-pyran-2-yl)methyl)-1-oxoisoindolin-2-yl)piperidine-2,6-dione] | > 1000 nM | 82% | 44 nM | – | – | –
O=C1CCC(N2Cc3c(ccc(C[C@H]4OCCC[C@@H]4NC4CC5(CCC5)C4)c3F)C2=O)C(=O)N1 (stereo partly shown) [Example 157] | 61 nM | 92% | 8 nM | – | – | 35%
O=C1CCC(N2Cc3cc(C[C@H]4CCCC[C@@H]4NCC4OCCO4)ccc3C2=O)C(=O)N1 (stereo partly drawn) [Example 60, 3-(5-(((1R,2S)-2-(((1,3-dioxolan-2-yl)methyl)amino)cyclohexyl)methyl)-1-oxoisoindolin-2-yl)piperidine-2,6-dione] | > 1000 nM | 63% | 65 nM | – | – | –
O=C1CCC(N2Cc3cc(C[C@H]4CCCC[C@@H]4NCc4ccccc4)ccc3C2=O)C(=O)N1 (single isomer, unassigned) [Example 98] | > 1000 nM | – | 41 nM | – | – | –
O=C1CCC(N2Cc3cc(C[C@H]4CCCC[C@@H]4NC4COc5ccccc5C4)ccc3C2=O)C(=O)N1 (stereo partly shown) [Example 143] | > 1000 nM | 94% | 33 nM | – | – | –
CC(=O)N1CCC(N[C@H]2CCCC[C@@H]2Cc2ccc3c(c2)CN(C2CCC(=O)NC2=O)C3=O)CC1 (stereo partly shown) [Example 108] | > 1000 nM | 96% | 55 nM | – | – | –
O=C1CCC(N2Cc3cc(C[C@H]4CCCC[C@@H]4NCCOc4ccccc4Cl)ccc3C2=O)C(=O)N1 (stereo partly shown) [Example 65] | > 1000 nM | 64% | 48 nM | – | – | –
[2H]C([2H])(N[C@H]1CCCC[C@@H]1Cc1ccc2c(c1)CN(C1CCC(=O)NC1=O)C2=O)c1ccccc1 (single isomer, unassigned) [Example 97] | – | 92% | – | – | – | 30%
O=C1CCC(N2Cc3cc(C[C@H]4CCCC[C@@H]4NCc4ccccc4Cl)ccc3C2=O)C(=O)N1 (stereo partly drawn) [Example 3, 3-(5-(((1R,2S)-2-((2-chlorobenzyl)amino)cyclohexyl)methyl)-1-oxoisoindolin-2-yl)piperidine-2,6-dione] | 34 nM | 94% | 19 nM | – | – | 38%
CC(CF)N[C@H]1CCCC[C@@H]1Cc1ccc2c(c1)CN(C1CCC(=O)NC1=O)C2=O (stereo partly shown) [Example 127] | 15 nM | 68% | 15 nM | – | – | 72%
